This data set can be described thus: method code SF, from DOI: 10.1021/jf00073a025.

Molecule `CNC(=O)O/N=C1/CSCS1` yielded a logP of 0.51.

In the case of `CNC(=O)O/N=C1\SCOC1C(C)C` (centres undefined), the logP was determined as 1.48. `CNC(=O)ON=C1COCCS1` (stereo in doubt) showed a logP of -0. In turn, `CCCC1OCS/C1=N\OC(=O)NC` (centres undefined) showed a logP of 1.52.

For `CNC(=O)O/N=C1/COCS1`, the log partition coefficient (logP) was found to be 0.06. `CNC(=O)ON=C1CSCCS1` returned a log partition coefficient (logP) of 0.49.

`CNC(=O)O/N=C1/SC(C)OC1C` (centres undefined) yielded a logP of 0.96. In turn, `CNC(=O)ON=C1SCSC1(C)C` had a logP of 1.31. Next, `CNC(=O)ON=C1SCOC1C` (stereo in doubt): 0.46; `CNC(=O)O/N=C1/SCOC1(C)C`: 0.82. Take `CNC(=O)O/N=C1\SCCSC1(C)C`: the lipophilicity (logP) worked out at 1.51. On to `CNC(=O)ON=C1CSC(C)(C)S1`, for which the lipophilicity (logP) is 1.33. Take `CNC(=O)O/N=C1\SCSC1C` (centres undefined): the logP was 0.91.

Molecule `CNC(=O)O/N=C1\SCOC1CCOC` (centres undefined) showed a log partition coefficient (logP) of 0.51.
